The values that follow come from patent US10226514B2, “Methods and compositions for reducing blood glucose levels” (The Children's Medical Center Corporation, priority 2011, dated 2019).

For assay [1], the system named is XBP1s. The assay is described as follows: XBP1s protein levels in Ad-XBP1s-infected MEFs (western blot). The format is cell-based, mouse. The protocol: (§1) MEF cells were from American Type Tissue Collection (ATCC). These cells were grown in Dulbecco's Modified Eagel Medium (DMEM) supplemented with 10% fetal bovine serum (FBS), 10 U/ml penicillin and 1 μg/ml streptomycin at 37° C. and 5% CO2. Fao cells were maintained in RPMI 1640 medium (Invitrogen) supplemented with 10% fetal bovine serum (FBS), 10 U/ml penicillin and 1 μg/ml streptomycin.
(§2) Adenovirus expressing XBP1s T48A, XBP1s S61A, XBP1s T48A/S61A and MKK6Glu were produced with ViraPower Adenoviral Expression System (Invitrogen) according to manufacturer's instruction. Briefly, pAD-XBP1s T48A, pAD-XBP1s S61A, pAd-XBP1s T48A/S61A and pAd-MKK6Glu were linearized by restriction endonuclease digestion with PacI and transfected to 293A cells by Lipofectamine. The media was changed with fresh media every other day until the cytopathic effect was observed. When cytopathic effect reached to 80%, cells were collected by centrifugation. The pellet was resuspended in PBS and subjected to freezing and thawing cycles at −80° C. and 37° C. for 4 times. The supernatant containing the virus was prepared by centrifugation at 4,000 rpm for 20 min at room temperature. Ad-XBP s and Ad-Cre were generated as described previously (Ozcan, L., et al. (2009) Cell metabolism 9:35-51). For infection, cells were incubated with adenovirus in reduced volume of medium containing 1% FBS and antibiotics. Cells were gently rocked every 15 min for 1 h to increase efficiency of infection, and then fresh medium were added and cells were incubated for additional 15 h or 23 h.
Cells were lysed in lysis buffer (25 mM Tris-HCl, pH 7.4; 10 mM NaF; 10 mM Na4P207; 2 mM Na3VO4; 1 mM EGTA; 1 mM EDTA; 1% NP-40; 10 μg/ml Leupeptin; 10 μg/ml Aprotinin; 1 mM PMSF and 20 nM Okadaic acid). After 20 min-rotation at 4° C., cell lysates were centrifuged at 13,200 rpm for 20 min at 4° C. Supernatants were collected and protein concentration was quantified by using Protein Assay Kit (Bio-Rad). The concentrations of protein were normalized with lysis buffer to have equivalent amounts of protein and volume. Protein was denatured by boiling at 100° C. for 5 min in Laemmli buffer. The lysates were cooled to room temperature before loading for western blot analysis.
Western blot analysis was performed as previously described (Ozcan, L., et al. (2009) Cell metabolism 9:35-51). Samples from cell lysates or tissue lysates were resolved by SDS-PAGE and then transferred to polyvinylidene fluoride (PVDF) membrane. After 1 h blocking at room temperature using 10% blocking reagent (Roche), membrane was incubated overnight with primary antibody in Tris-buffered saline solution/Tween (TBST) containing 10% blocking reagent at 4° C. After the incubation, membrane was washed three times in TBST and incubated with secondary antibody for 1 h at room temperature. After three-time washing in TBST, membrane was developed using a chemiluminescence assay system (Roche) and exposed to Kodak films. Relative protein levels were quantified by Image J program.

In assay [2] the test system is XBP1s. The assay is described as follows: FBS-induced XBP1s nuclear translocation in starved cells. The format is cell-based, mouse. Conditions: 16 h starved cells, inhibitor 10 μM before 10% FBS. The protocol:
XBP1s is generated in the liver when an animal is refed after a fasting period (Park, S. W., et al. (2010) Nature Med 16:429-437), likely mainly due to increased metabolic overloading. To create a metabolic overloading model in cells, following a 16 h starvation in medium without fetal bovine serum (FBS), cells were reincubated for 15, 30 and 60 minutes with medium containing 10% FBS, following which total and nuclear proteins or mRNA were isolated and used to analyze various parameters, including p38 MAPK activation, XBP1s nuclear migration, and splicing. When the cells were starved, then stimulated with medium containing 10% FBS, there was a robust increase in XBP1s splicing and nuclear translocation, as well as in activation of p38 MAPK (FIG. 10A). […] The same experiment was then repeated in p38α^−/− and MKK3,6^−/− cells. […] Moreover, FBS-induced XBP i s nuclear translocation was severely impaired in the MKK3,6^−/− cells (FIG. 10C).

For a further assay, the system named is p38 MAPK. The assay is described as follows: Fasting/re-feeding of lean mice treated with p38 MAPK inhibitor. The conditions noted are these: 2 mg/kg/day intraperitoneally three days. The format is in vivo, mouse. The protocol: For liver tissue, a kit from Thermo Scientific (Rockford, Ill.) was used according to the manufacturer's instruction. Liver tissues were cut into small pieces, washed with PBS, and separated from PBS by centrifugation at 500×g for 5 minutes. Collected tissues were resuspended by company-supplied CER I buffer and homogenized with a Dounce homogenizer. Homogenized tissues were vortexed and incubated on ice for 10 minutes. Following CER II buffer addition, tissues were vortexed for 5 seconds, incubated for 1 minute on ice, vortexed again, and then centrifuged for 5 minutes at maximum speed in a microcentrifuge. The supernatant (cytoplasmic fraction) was saved for later analysis. The pellets were resuspended with supplied NER buffer and undergone a series of multiple vortexing (15 seconds) and incubation on ice (10 minutes) for a total of 40 minutes. After 10-minute centrifugation, the supernatant (nuclear fraction) was collected and analyzed with immunoblotting.
Tissues were homogenized with a bench-top homogenizer (Polytron, PT2100) in ice-cold tissue lysis buffer (25 mM Tris-HCl, pH 7.4; 100 mM NaF; 50 mM Na4P207; 10 mM Na3VO4; 10 mM EGTA; 10 mM EDTA; 1% NP-40; 10 μg/ml Leupeptin; 10 μg/ml Aprotinin; 2 mM PMSF and 20 nM Okadaic acid). After homogenization, lysates were rotated for 1 h at 4° C. and then subjected to centrifugation at 13,200 rpm for 20 min at 4° C. The lipid layer was removed and the supernatant was transferred into Eppendorf tubes for centrifugation. This process was repeated for 2 times to get rid of lipid completely. Protein concentration was quantified by using Protein Assay Kit (Bio-Rad). Equivalent protein concentration in each sample was prepared and boiled at 100° C. for 5 min in Laemmli buffer. The lysates were cooled to room temperature before loading for western blot analysis.

The test system of assay [3] is XBP1s. The assay is described as follows: Co-expression of kinase constructs with XBP1s in transfected cells. The conditions noted are these: p38 MAPK inhibitor 10 μM. The format is cell-based. The text has this:
To unravel the molecular mechanisms underlying the above observations, several different approaches were taken to explore whether activation of JNK, which is one of the most dominant signaling elements in SAPK signaling, affects XBP1s levels and nuclear translocation. […] It is known that MAPK kinase kinase (MKK) 4 and 7 are upstream kinases responsible for JNK activation (Tournier, C., et al. (2001) Genes Dev 15:1419-1426; Brancho, D., et al. (2003) Genes Dev 17:1969-1978) and anisomycin or TNFα cannot activate JNK in MKK4 and 7 double knock out cells (MKK4,7^−/−) (Tournier, C., et al. (2001) Genes Dev 15:1419-1426; Schaeffer, H. J. & Weber, M. J. (1999) Mol Cell Biol 19:2435-2444). In order to determine whether XBP1s can be regulated by anisomycin treatment in MKK4,7^−/− cells, these cells, along with their controls, were treated with anisomycin after XBP is expression. […] Furthermore, the experiments were repeated in JNK1,2^−/− and MKK4,7^−/− cells with TNFα. […] Finally, an MKK7-JNK1 fusion protein, previously shown to be a specific activator of JNK (Lei, K., et al. (2002) Mol Cell Biol 22:4929-4942), was used to investigate whether activation of JNK alone can have effect on XBP1s.
A constitutively active form of MKK6 (MKK6Glu), one of the upstream kinases of p38 MAPK, was previously generated by mutation of Ser207 and […] to glutamate. […]

The test system of assay [4] is XBP1s. The assay is described as follows: XBP1s levels in Ad-XBP1s-infected Fao cells. The conditions noted are these: Ad-XBP1s-infected Fao cells (rat hepatoma). The format is cell-based. The procedure: as §1
as §2, with “Ad-XBP s and Ad-Cre were generated as described previously (Ozcan, L., et al. (2009) Cell metabolism 9:35-51). For infection, cells were incubated with adenovirus in reduced volume of medium containing 1% FBS and antibiotics. Cells were gently rocked every 15 min for 1 h to increase efficiency of infection, and then fresh medium were added and cells were incubated for additional 15 h or 23 h.” left out
Western blot analysis was performed as previously described (Ozcan, L., et al. (2009) Cell metabolism 9:35-51). […] Relative protein levels were quantified by Image J program.

Assay [5] relates to XBP1s. The assay can be described thus: Cytoplasmic and nuclear XBP1s protein in cells. The format is cell-based, mouse. Conditions: mutant XBP1s expressed in cells, anisomycin 25 ng/ml, vs WT. The protocol: Cytoplasmic and nuclear protein fractions were extracted from cells by using nuclear protein extraction kit from Active Motif (Carlsbad, Calif.). Cells were maintained in 10 cm tissue culture dishes for nuclear/cytoplasmic extraction. After removal of the media, cells were washed with ice-cold phosphate buffered saline (PBS) containing phosphatase inhibitors. Subsequently, 3 ml of ice-cold PBS with phosphatase inhibitors was added and then cells were scrapped out of the dish. Collected cells were separated from PBS by centrifugation for 5 minutes at 500 rpm and resuspended with 500 μl of 1× hypotonic buffer. After 15-minute incubation in hypotonic buffer on ice, 25 μl of supplied detergent was added and cells were vortexed 10 seconds. Cells were centrifuged for 30 seconds at 14,000×g and supernatant (cytoplasmic fraction) was saved for further analysis. Remaining pellet, which contains nuclei, were resuspended with 50 μl of provided complete lysis buffer with 1 mM dithiothreitol (DTT), vortexed 10 seconds, and incubated for 30 minutes on ice. After 30-second vortexing and 10-minute centrifugation at 14,000×g, the supernatant was collected and analyzed as nuclear fraction.

On to `CCOc1nc(NC(=O)Cc2cc(OC)ccc2OC)cc(N)c1C#N` [JNK inhibitor VIII], for which, in the assay with XBP1s [1] (JNK inhibitor 10 μM 30 minutes, then anisomycin 25 ng/ml two hours), the “effect on anisomycin-mediated upregulation of XBP1s protein levels” value was “no effect”.

`C[S+]([O-])c1ccc(-c2nc(-c3ccncc3)c(-c3ccc(F)cc3)[nH]2)cc1` (stereo not drawn) [SB203580]: in the assay on XBP1s [2], the “FBS-induced XBP1s nuclear translocation” value is listed as “completely eliminated XBP1s nuclear translocation” and the XBP1s splicing entry is on record as “without altering XBP1s splicing”. Moreover, the “anisomycin-induced increase in XBP1s levels” value with XBP1s [1] (SB203580 10 μM 30 minutes, then anisomycin 25 ng/ml two hours) is on record as “completely abolished”. For the same molecule, in the assay with p38 MAPK, the “GRP78 expression increase in liver after re-feeding” value is “but not in the inhibitor-treated group” and the “XBP1s mRNA levels in the liver of re-fed mice” value is listed as “significantly increased”. Besides, the ATF2 phosphorylation result in the assay with p38 MAPK (lean C57BL6 mice) is given as “dramatic reduction in phosphorylation”. Further, the “XBP1s nuclear translocation in the liver after re-feeding” value with p38 MAPK (lean C57BL6 mice, starved 24 hours, refed one hour) is given as “completely absent”. In addition, the “effect of MKK6Glu on XBP1s” value with XBP1s [3] is recorded as “blocked the effect of MKK6Glu on XBP1s”.

Regarding TNFα, the XBP1s levels entry is listed as “dramatically upregulating their XBP1s levels” in the assay with XBP1s [4] and “significant increase in XBP1s levels” in the assay on XBP1s [1] (MKK4,7−/− cells). Moreover, the XBP1s protein levels entry is on record as “markedly increased XBP1s protein levels” in the assay on XBP1s [1] (Ad-XBP1s-infected MEFs, increasing doses, two hours) and “significant increase in XBP1s levels” in the assay on XBP1s [1] (JNK1,2−/− cells).

B1: T48A: mutant XBP1s with Thr48 residue mutated to alanine (protein)
chain: MVVVAAAPSAATAAPKVLLLSGQPASGGRALPLMVPGPRAAGSEASGAPQARKRQRLTHLSPEEKALRRKLKNRVAAQTARDRKKARMSELEQQVVDLEEENHKLQLENQLLREKTHGLVVENQELRTRLGMDTLDPDEVPEVEAKGSGVRLVAGSAESAAGAGPVVTSPEHLPMDSDTVASSDSESDILLGILDKLDPVMFFKCPSPESASLEELPEVYPEGPSSLPASLSLSVGTSSAKLEAINELIRFDHVYTKPLVLEIPSETESQTNVVVKIEEAPLSSSEEDHPEFIVSVKKEPLEDDFIPELGISNLLSSSHCLRPPSCLLDAHSDCGYEGSPSPFSDMSSPLGTDHSWEDTFANELFPQLISV
Regarding B1, in the assay on XBP1s [5], the “decrease of XBP1s nuclear translocation” value is reported as “about 49%”.

B2: S61A: amino acid substitution mutant XBP1s at Ser61 (protein)
chain: MVVVAAAPSAATAAPKVLLLSGQPASGGRALPLMVPGPRAAGSEASGTPQARKRQRLTHLAPEEKALRRKLKNRVAAQTARDRKKARMSELEQQVVDLEEENHKLQLENQLLREKTHGLVVENQELRTRLGMDTLDPDEVPEVEAKGSGVRLVAGSAESAAGAGPVVTSPEHLPMDSDTVASSDSESDILLGILDKLDPVMFFKCPSPESASLEELPEVYPEGPSSLPASLSLSVGTSSAKLEAINELIRFDHVYTKPLVLEIPSETESQTNVVVKIEEAPLSSSEEDHPEFIVSVKKEPLEDDFIPELGISNLLSSSHCLRPPSCLLDAHSDCGYEGSPSPFSDMSSPLGTDHSWEDTFANELFPQLISV
Consider B2, for which the “decrease of XBP1s nuclear translocation” value with XBP1s [5] was “about 79%”.
